According to paper PMC3711437, “Real-time detection of DNA topological changes with a fluorescently labeled cruciform” (Nucleic Acids Research, 2013):

Target: T1, E. coli gyrase holoenzyme (GyrA and GyrB) (Escherichia coli, UniProt P0AES4+P0AES6)
T1 construct: His-tagged GyrA and GyrB expressed separately in E. coli BL21-CodonPlus(DE3)-RIL, tags cleaved with TEV protease, Ni-NTA and S200 purified; used as holoenzyme
Assay: supercoiling, fluorescent cruciform extrusion, NCC screen
Assay type: biochemical
Text: supercoiling, fluorescent cruciform extrusion, NCC screen on E. coli gyrase holoenzyme (GyrA and GyrB)

T1 sequence (P0AES4 whole entry, one chain of several): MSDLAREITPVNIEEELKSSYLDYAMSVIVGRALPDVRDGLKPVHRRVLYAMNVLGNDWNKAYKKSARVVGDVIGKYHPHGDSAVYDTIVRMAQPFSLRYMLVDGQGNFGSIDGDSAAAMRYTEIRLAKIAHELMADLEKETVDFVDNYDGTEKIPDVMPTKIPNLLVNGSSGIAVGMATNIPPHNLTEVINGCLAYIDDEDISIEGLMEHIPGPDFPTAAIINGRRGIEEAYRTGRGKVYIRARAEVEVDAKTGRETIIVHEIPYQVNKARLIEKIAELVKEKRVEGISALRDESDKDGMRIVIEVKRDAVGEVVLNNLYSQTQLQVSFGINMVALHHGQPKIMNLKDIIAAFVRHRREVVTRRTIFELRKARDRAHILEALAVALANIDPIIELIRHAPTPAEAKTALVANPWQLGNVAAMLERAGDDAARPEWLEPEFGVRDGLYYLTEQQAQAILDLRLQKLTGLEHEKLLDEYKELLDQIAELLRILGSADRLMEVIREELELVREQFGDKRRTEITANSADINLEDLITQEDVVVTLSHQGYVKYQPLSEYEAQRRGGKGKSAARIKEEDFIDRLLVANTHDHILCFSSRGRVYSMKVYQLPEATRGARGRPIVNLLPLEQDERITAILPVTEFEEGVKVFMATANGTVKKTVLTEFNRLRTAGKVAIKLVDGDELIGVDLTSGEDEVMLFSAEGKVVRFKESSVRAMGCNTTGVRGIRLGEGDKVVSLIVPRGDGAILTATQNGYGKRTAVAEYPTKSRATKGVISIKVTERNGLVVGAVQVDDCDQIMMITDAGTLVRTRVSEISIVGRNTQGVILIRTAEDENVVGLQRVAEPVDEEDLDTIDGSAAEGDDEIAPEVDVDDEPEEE

Compound | inhibition at 50 µM [%]
CCn1cc(C(=O)O)c(=O)c2cc(F)c(N3CCN(C)CC3)cc21 [Pefloxacin] | 95
NC1CCN(c2nc3c(cc2F)c(=O)c(C(=O)O)cn3-c2ccc(F)cc2F)C1 (stereo not shown) [Tosufloxacin] | 96
CN1CCN(c2c(F)cc3c(=O)c(C(=O)O)cn4c3c2SCC4)CC1 [Rufloxacin] | 89
CCN1CCN(c2cc3c(cc2F)c(=O)c(C(=O)O)cn3C2CC2)CC1 [Enrofloxacin] | 67
